From US8476449B2, “Radioactive iodine labeled organic compound or salt thereof” (Nihon Medi-Physics Co., Ltd., priority 2010, dated 2013)

What was measured:
Aβ42 aggregate = target: T1, Aβ42 aggregate (Homo sapiens, UniProt P05067); assay: Inhibition constant toward Aβ42 aggregate (thioflavin S competition); assay type: binding; settings: thioflavin S as ligand, read-out: Ki values (Aβ42 in Table 5)
T1 construct: Aβ (1-42) peptide; purchased Peptide Institute, Inc
Procedure: (§1) First, the dissociation constant (Kd) of thioflavin S used as a competitive ligand was first determined by a saturation experiment in order to calculate inhibition constants of compounds 1 to 3. That is, a mixed solution of a 10 vol % ethanol aqueous solution of thioflavin S (0.1-12.8 μmol/L) and the tau protein aggregate (final concentration 0.2 μmol/L, prepared in Example 9) or the Aβ42 aggregate (final concentration 2.2 μmol/L, prepared in Example 11) was incubated for 30 minutes, and the fluorescence intensity was measured using a fluorescence plate reader (FLEX STATION, Molecular Devices). The fluorescence intensity was measured at Ex 440 nm and Em 510 nm for the tau protein aggregate and Ex 440 nm and Em 490 nm for the Aβ42 aggregate. A saturation curve was prepared using GraphPad Prism, and the Kd value for thioflavin S was calculated.
(§2) Next, a mixed solution of a 10 volt ethanol aqueous solution of thioflavin S (1.5 μmol/L) and a test compound (0.6 nmol/L to 10 μmol/L) together with the tau protein aggregate (final concentration 0.2 μmol/L, prepared in Example 9) or the Aβ42 aggregate (final concentration 10 μg/ml, prepared in Example 11) was incubated for 30 minutes. Then, the fluorescence intensities at Ex 440 nm and Em 510 nm for the tau protein aggregate and Ex 440 nm and Em 490 nm for the Aβ42 aggregate were measured using a fluorescence plate reader (FLEX STATION, Molecular Devices). GraphPad Prism inhibition curves were prepared, and Ki values of compounds 1 to 3 were determined using the above obtained Kd value of thioflavin S.

[1] = tested on: human brain neurofibrillary tangles; assay: Fluorescent staining of Alzheimer's disease patient brain slice (binding to human brain neurofibrillary tangles); settings: 200 μmol/L, 1 hour
Procedure: A fluorescent staining experiment with compound 3 using an Alzheimer's disease patient brain slice was carried out in order to evaluate binding to human brain neurofibrillary tangles. A postmortem brain slice (paraffin-embedded slice) of an Alzheimer's disease patient purchased from BioChain was washed with xylene (5 minutes×twice), ethanol, ethanol, a 95 vol % ethanol aqueous solution, an 85 volt ethanol aqueous solution, and a 70 vol % ethanol aqueous solution (1 minute×once) to thus carry out deparaffinization. Subsequently, it was treated in sequence with a 0.3 wt % potassium permanganate aqueous solution (20 minutes×once), PBS (phosphoric acid buffer physiological saline) (2 minutes×twice), a 1 wt % potassium metabisulfite aqueous solution/1 wt % oxalic acid aqueous solution (1 minute×once), PBS (2 minutes×twice), a 1 wt % sodium borohydride aqueous solution (5 minutes×once), and PBS (2 minutes×twice) in order to remove self-fluorescence of the slice. Blocking using 3 wt % BSA-containing PBS/0.1 wt % tritonX100-containing PBS was carried out for 3 hours. Then, a test compound (200 μmol/L/50 vol % ethanol aqueous solution) and the slice were incubated for 1 hour. The slice was washed with 50 vol % ethanol, and examined using a fluorescence microscope. Furthermore, the same slice was stained using thioflavin S (0.125 wt %, 50 vol % ethanol aqueous solution) for 10 minutes. […]

tau protein aggregate [2] = target: T2, tau protein aggregate (Homo sapiens, UniProt P10636); assay: Competitive inhibition experiment using thioflavin S (ThS) as ligand, fluorescence spectra; assay type: binding; parameters: made in house; host or cells: E. coli BL21; settings: tau protein aggregate 0.2 μmol/L, thioflavin S 1.5 μmol/L, compound 0.1-2.7 μmol/L, excitation 440 nm
Procedure: Tau-441 expression vector (provided by Graduate School of Medicine, Osaka City University) was transferred to E. coli (BL21), culturing was carried out, and a tau protein was extracted and purified. Heparin (0.1 mg/mL) was added to the purified tau protein (1 mg/mL), and incubation in a 50 mmol/L MES buffer (pH 6.8, 100 mmol/L sodium chloride, 0.5 mmol/L EGTA) at 37° C. was carried out for 3 days, thus preparing an aggregate. Formation of the tau protein aggregate was confirmed by SDS-PAGE and thioflavin S fluorescence assay.
A mixed solution (550 μL) of the tau protein aggregate (final concentration […]) thus prepared, thioflavin S (Sigma Aldrich, final concentration 1.5 μmol/L), and compound 1, compound 2, or compound 3 solution at various concentrations (each having final concentrations of 0 to 2.7 μmol/L) was incubated for 30 minutes, and fluorescence spectra at an excitation wavelength of 440 nm were measured using a fluorescence spectrometer (RF-5300PC, Shimadzu Corporation).
In FIGS. 3 to 5, a is a fluorescence spectrum of a sample (sample I) containing only thioflavin S at 1.5 μmol/L, and b is a fluorescence spectrum of a sample (sample II) that is 0.2 μmol/L of the tau protein aggregate in sample I. In FIG. 3, c is a fluorescence spectrum of a sample that is 0.1 μmol/L of compound 1 in sample II, d is a fluorescence spectrum of a sample that is 0.3 μmol/L of compound 1 in sample II, e is a fluorescence spectrum of a sample that is 0.9 μmol/L of compound 1 in sample II, and f is a fluorescence spectrum of a sample that is 2.7 μmol/L of compound 1 in sample II. In FIG. 4, c is a fluorescence spectrum of a sample that is 0.1 μmol/L of compound 2 in sample II, d is a fluorescence spectrum of a sample that is 0.3 μmol/L of compound 2 in sample II, e is a fluorescence spectrum of a sample that is 0.9 μmol/L of compound 2 in sample II, and f is a fluorescence spectrum of a sample that is 2.7 μmol/L of compound 2 in sample II. […]

tau protein aggregate [3] = target: T2, tau protein aggregate; assay: Inhibition constant toward tau protein aggregate (thioflavin S competition); assay type: binding; parameters: made in house; host or cells: E. coli BL21
Procedure: as §1, §2

T2 sequence (P10636 1-441 isoform P10636-8): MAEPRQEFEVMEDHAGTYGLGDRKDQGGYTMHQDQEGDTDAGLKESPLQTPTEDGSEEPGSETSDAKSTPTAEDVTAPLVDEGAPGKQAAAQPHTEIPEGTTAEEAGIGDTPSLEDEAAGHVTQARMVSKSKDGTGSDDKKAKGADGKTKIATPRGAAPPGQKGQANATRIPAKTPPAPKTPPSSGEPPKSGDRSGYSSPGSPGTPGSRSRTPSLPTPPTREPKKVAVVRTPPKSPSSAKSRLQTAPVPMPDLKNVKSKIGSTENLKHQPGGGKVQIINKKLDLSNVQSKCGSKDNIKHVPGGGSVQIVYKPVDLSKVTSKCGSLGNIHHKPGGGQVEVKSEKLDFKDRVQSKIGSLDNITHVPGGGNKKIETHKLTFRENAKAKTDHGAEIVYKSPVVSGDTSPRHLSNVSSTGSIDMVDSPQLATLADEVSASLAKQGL
T1 sequence (P05067 672-713 limits assumed): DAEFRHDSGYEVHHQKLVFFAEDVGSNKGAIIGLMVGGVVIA

## O=C1/C(=C/c2ccc(-c3cccc(I)c3)o2)NC(=S)N1CCc1c[nH]cn1 [Compound 3, (Z)-3-(2-(1H-imidazol-4-yl)ethyl)-5-((5-(3-iodophenyl)furan-2-yl)methylene)-2-thioxoimidazolidin-4-one]
Aβ42 aggregate
  Ki: 469 nM
[1]
  Fluorescent staining of brain slice vs AT8 immunostaining: Prominent fluorescence accumulation
Tau protein aggregate [2]
  Inhibition of binding of tau protein aggregate to thioflavin S (fluorescence spectra): inhibition of binding of a tau protein aggregate to thioflavin S
Tau protein aggregate [3]; ratio of Ki Aβ42 aggregate to Ki tau protein aggregate
  Ki ratios of Aβ42/Tau: 7.33
Tau protein aggregate [3]; thioflavin S as ligand, tau protein aggregate, read-out: Ki values (Tau in Table 5)
  Ki: 64 nM
